Data: US12303490B2, “Compositions and methods for suppressing and/or treating neurodegenerative diseases and/or a clinical condition thereof” (CK Regeon Inc., priority 2019, dated 2025)

What was measured:
[1] = tested on: β-catenin, CXXC5 and p-GSK3β (S9) in H4/SWE cells; experiment: Western blot assay in H4/SWE cells; format: cell-based; details: FIG. 9A
Procedure: Western blot assay. H4 and H4/SWE Cells were ground with a mortar and pestle before lysis in RIPA buffer (150 mM NaCl, 10 mM Tris, pH 7.2, 0.1% SDS, 1.0% Triton X-100, 1% sodium deoxycholate, and 5 mM EDTA). Samples were separated on 6-12% SDS polyacrylamide gels and transferred onto PROTRAN nitrocellulose membranes (Schleicher and Schuell Co.). The membranes were blocked with PBS containing 5% non-fat dry skim milk and 0.07% (vol/vol) Tween 20 and incubated with antibody specific for β-catenin (1:1,000, Santa Cruz Biotechnology, Inc.), CXXC5 (1:500, Santa Cruz Biotechnology, Inc.), p-GSK3β(S9) (1:500, Santa Cruz Biotechnology, Inc.). The membranes were then incubated with horseradish peroxidase-conjugated anti-rabbit (1:5,000, Bio-Rad Laboratories) or anti-mouse (1:5000, Cell Signaling Technology) IgG secondary antibody. Protein bands were visualized with enhanced chemiluminescence (GE Healthcare) using a luminescent image analyzer, LAS-3000 (Fujifilm). Western blot bands were analyzed using Multi-Gauge V3.0 software (Fujifilm).

[2] = tested on: GLP-1 and other Wnt/β-catenin signaling target genes (Tcf712, Axin2, Dvl1, Wisp1, Fosl1); experiment: qPCR of GLP-1 and other Wnt/β-catenin signaling target genes in epiWAT of HFD-mice; format: in vivo; details: phenotypes as observed in HFD-fed Cxxc5−/− mice, FIG. 2C
Procedure: Quantitative real-time polymerase chain reaction (PCR). Total RNA was extracted from ground tissue powder using TRIzol reagent (Invitrogen) according to the manufacturer's instructions. Reverse transcription was performed with M-MLV reverse transcriptase (Invitrogen) using 2 μg of total RNA. Synthesized cDNA was diluted to a concentration of 100 ng/μl. Quantitative PCR analyses were performed in the Rotor-gene Q real-time PCR cycler (Qiagen) using SYBR green reagent (Qiagen) with conditions of 95° C. for 10 min followed by 40 cycles at 95° C. for 5 s and 60° C. for 15 s. Relative quantification of mRNA levels was estimated using the comparative Ct method (ΔΔCt). Glp-1 mRNA values were normalized with respect to GAPDH.
(§1) Animals. The generation of Cxxc5^−/− mice has been described previously. Cxxc5 heterozygous mice were intercrossed for four generations to obtain littermate wild-type and Cxxc5^−/− mice and were maintained on a C57BL/6 background. Six-week-old Cxxc5^+/+ and Cxxc5^−/− mice were fed HFD for 8 weeks. Wild-type male C57BL/6 mice (KOATECH, Seoul, Korea) were fed HFD consisting of 60% calories from fat (Research Diet, D12492) for 8 weeks. To validate that the insulin resistance mouse model was successfully established, fasting glucose levels were assessed with a One Touch Ultra glucometer (LifeScan). […]

serum active GLP-1 [3] = experiment: Serum active GLP-1 ELISA in HFD-fed, STZ-induced diabetes mice; format: in vivo
Procedure: (§2) Blood chemistry. Total blood of mice was collected by cardiac puncture. The blood was allowed to clot for 30 min and was then centrifuged for 30 min at 3,000×g to obtain supernatant to measure active GLP-1 concentration. ELISA assay kits were used to assess serum active GLP-1 (7-36).
as §1, with “(LifeScan). Subsequently, each HFD-fed mouse with a fasting glucose level higher than 16.7 mmol/L was orally administered A3334 (25 mg kg^−1), sitagliptin (50 mg kg^−1), or metformin (100 mg kg^−1) each day for 5 days at weeks 8 and 12. After the removal of the drugs, mice were maintained for 3 weeks on the HFD. To monitor pancreas regeneration, six-week-old Cxxc5^+/+ and Cxxc5^−/− mice were fed an HFD as above.” for “(LifeScan).”

[4] = tested on: secreted human amyloid β-42 in H4/SWE cells; experiment: Human Aβ42 ELISA assay in H4/SWE cells; format: cell-based; details: 24 h, FIG. 10
Procedure: Human Aβ42 ELISA assay. H4 or H4/SWE cells were cultured in Dulbecco's Modified Eagle's Medium (DMEM, Gibco) containing 10% fetal bovine serum (FBS) and grown to confluence in a 5% CO2 and 95% air humidified atmosphere. The cells were seeded in 6-well plate in DMEM supplemented with 10% FBS and allowed to adhere overnight. The cells were treated with each compound (1˜20 uM) for 24 h and collected in 1 ml of medium. The samples were treated with protease inhibitor cocktail (PIC) to avoid the degradation of Amyloid β by protease and centrifuged at 3000 rpm for 3 min. Experiments were performed according to the guidance of Human Aβ42 ELISA Kit protocol (Invitrogen). The amount of secreted Amyloid β was normalized by measuring total protein concentration.

[5] = tested on: β-catenin in H4/SWE cells; experiment: Immunocytochemical analysis of β-catenin in H4/SWE cells; format: cell-based; details: FIG. 9B
Procedure: Immunocytochemical analysis. H4 or H4/SWE cells treated with each compound were washed with PBS and fixed in 4% (wt/vol) paraformaldehyde (PFA) in PBS for 15 min at room temperature. The cells were then washed with PBS and permeabilized with 0.1% (vol/vol) Triton X-100 in PBS for 15 min. After washing with PBS, the cells were incubated with 10% bovine serum albumin (BSA) in PBS for 30 min and then with antibodies specific for β-catenin (1:100; BD) overnight at 4° C. The cells were washed in PBS and incubated with Alexa Fluor 488—conjugated IgG secondary antibody (1:400; Molecular Probes) at room temperature for 1 h. Cell nuclei were counterstained with DAPI for 10 min and the stained samples were examined under a LSM510 META microscope.

serum active GLP-1 [6] = experiment: Serum active GLP-1 in NASH mouse models (STZ-induced, MCD-induced); format: in vivo, mice; details: FIG. 6A-6B
Procedure: FIG. 6A. Graph illustrating the serum active GLP-1 levels in NCD-mice (“Chow”) and RFD-fed, STZ-induced NASH mice that were treated with vehicle, A3334, A3051, selonsertib, and ocaliva.
FIG. 6B. Graph illustrating the serum active GLP-1 levels in NCD-mice (“Chow”) and RFD-fed, methionine-choline deficient diet (MCD)-induced NASH mice that were treated with vehicle, A3334, A3051, selonsertib, ocaliva (“OCA”), and A3486.
as §2

serum active GLP-1 [7] = experiment: Serum active GLP-1 ELISA in HFD-mice; format: in vivo; details: compared with mice fed on NCD, FIG. 4A
Procedure: as §2
as §1, with “(LifeScan). Subsequently, each HFD-fed mouse with a fasting glucose level higher than 16.7 mmol/L was orally administered A3334 (25 mg kg^−1), sitagliptin (50 mg kg^−1), or metformin (100 mg kg^−1) each day for 5 days at weeks 8 and 12. After the removal of the drugs, mice were maintained for 3 weeks on the HFD. To monitor pancreas regeneration, six-week-old Cxxc5^+/+ and Cxxc5^−/− mice were fed an HFD as above.” for “(LifeScan).”

CXXC5-DVL interaction = experiment: In vitro CXXC5-DVL PPI inhibition (binding) assay, library screening; details: compound 30 μM; FITC-tagged PTD-DBMP and DVL-PDZ domain; fluorescence intensity
Procedure: Screening for compounds that inhibit the CXXC5-DVL interaction. […] CELL. DEATH. DIFFER. […] Briefly, 5 mg/ml purified DVL-PDZ domain was incubated in each well of a 96-well Maxibinding Immunoplate (SPL, Seoul, Korea) at 4° C. for 16 h. After the addition of 10 μM FITC-tagged PTD-DBMP to each well, each compound in the chemical library or control (DMSO) was treated to the well at a final concentration of 30 μM. The fluorescence intensity was measured using a Fluorstar Optima microplate reader (BGM Lab Technologie, Ortenberg, Germany) and normalized as follows: “(‘compounds-treated group’−‘blank’)/(‘DMSO-treated control’−‘blank’)*100”.

Wnt/β-catenin pathway = experiment: pTOPFlash reporter assay in HEK293 cells; details: HEK293 cells harboring the pTOPFlash reporter

`COc1ccc2c(c1)/C(=C1/Nc3ccccc3/C1=N\O)C(=O)N2` [Compound A3334, 5-Methoxyindirubin-3′-oxime] was tested, and the “level of CXXC5 (western blot)” value [1] was “decreased”, the “level of β-catenin (western blot)” value [1] was “restored” and the “p-GSK3β (S9) (western blot)” value [1] was “increased”. The “relative expression levels of GLP-1 and other Wnt/β-catenin signaling target genes in epiWAT” value [2] was “restored the phenotypes”, the “serum active GLP-1 levels” value (serum active GLP-1 [3]; STZ-induced diabetic HFD-mice, compared with mice fed on NCD, FIG. 4B) was “restored” and the “active GLP-1 expression in blood serum compared to the sitagliptin treatment” value (serum active GLP-1 [3]; compared to the effect of sitagliptin (positive control)) was “significantly rescued (increased)”. For the same compound, the “secretion of Aβ-42” value [4] was “inhibited”, the “nuclear translocation of β-catenin” value [5] was “increased” and the “active GLP-1 expression in blood serum” value (serum active GLP-1 [6]) was “significantly rescued (increased)”. For the same compound, the “serum active GLP-1 levels” value (serum active GLP-1 [7]) was “restored”.
For `O=c1c(O)c(-c2ccc(O)cc2O)oc2cc(O)cc(O)c12` [Compound 15], the “CXXC5-DVL inhibitory activity (%)” value (CXXC5-DVL interaction) was 85.41%.
In the case of `COc1ccc(C2CC(=O)C3=C(C2)Nc2onc(C)c2C3c2ccc(O)c(O)c2)cc1OC` (stereo not drawn) [Compound 7], the “CXXC5-DVL inhibitory activity (%)” value (CXXC5-DVL interaction) is reported as 90.87%.
For `Cl.O=C(OCCN1CCOCC1)C1(c2ccccc2)CCCCC1` [Compound 18], the “CXXC5-DVL inhibitory activity (%)” value (CXXC5-DVL interaction) was 86.81%.
For `CCN(CC)S(=O)(=O)c1ccc(OC)c(Nc2cc(-c3ccccc3)nc(C)n2)c1` [Compound 6], the “CXXC5-DVL inhibitory activity (%)” value (CXXC5-DVL interaction) was 58.24%.
For `Cc1cc(C)c2c(O)nc(SCC(=O)c3ccc(O)c(O)c3)nc2n1` [Compound 3], the “CXXC5-DVL inhibitory activity (%)” value (CXXC5-DVL interaction) was 88.19%.
With `O=C1Nc2ccccc2/C1=C1/Nc2ccccc2C1=O` [Indirubin, reference compound] the “level of β-catenin (western blot)” value [1] was “restored” and the “p-GSK3β (S9) (western blot)” value [1] was “increased”.
In the case of `COc1ccc(C2CC(C(F)(F)F)n3ncc(C(=O)O)c3N2)cc1OC` (stereo not drawn) [Compound 2], the “CXXC5-DVL inhibitory activity (%)” value (CXXC5-DVL interaction) is reported as 90.63%.
With `O=C(O)C1Sc2[nH]c(=O)sc2C2c3cc(Br)cc(Br)c3OC(=O)C12` (stereo not drawn) [Compound 5] the “CXXC5-DVL inhibitory activity (%)” value (CXXC5-DVL interaction) was 90.48%.
With `O=C1Nc2ccccc2/C1=C1/Nc2ccccc2/C1=N\O` [Compound 12, Indirubin-3′-oxime, reference compound] the “level of β-catenin (western blot)” value [1] was “restored”, the “p-GSK3β (S9) (western blot)” value [1] was “increased” and the “activation of Wnt/β-catenin pathway (reporter assay)” value (Wnt/β-catenin pathway) was “showed effectiveness”. The “CXXC5-DVL inhibitory activity (%)” value (CXXC5-DVL interaction) was 89%.
`COC(=O)C1=C(C)N/C(=C/c2cc(C)n(-c3ccccc3F)c2C)C1=O` [Compound 4] was tested, and the “CXXC5-DVL inhibitory activity (%)” value (CXXC5-DVL interaction) was 87.58%.
`Oc1cc(O)cc(/C=C/c2ccc(O)c(O)c2)c1` [Compound 17] was tested, and the “CXXC5-DVL inhibitory activity (%)” value (CXXC5-DVL interaction) was 85.25%.
For `Cc1cc(F)c(C(=O)Nc2cccc(-c3nncn3C(C)C)n2)cc1-n1cnc(C2CC2)c1` [selonsertib, reference compound], the “active GLP-1 expression in blood serum” value (serum active GLP-1 [6]) was “did not have any effect”.
For `Br.CN1CCc2cc(O)cc3c2[C@H]1Cc1ccc(O)c(O)c1-3` [Compound 9], the “CXXC5-DVL inhibitory activity (%)” value (CXXC5-DVL interaction) was 89.41%.
`NC(Cc1cc(O)c(O)cc1O)C(=O)O` (stereo not drawn) [Compound 10] was tested, and the “CXXC5-DVL inhibitory activity (%)” value (CXXC5-DVL interaction) was 90.32%.
In the case of `O=c1cc(O)cc(/C=C/c2ccc(O)c(O)c2)o1` [Compound 11], the “CXXC5-DVL inhibitory activity (%)” value (CXXC5-DVL interaction) is reported as 90.05%.
`CN(C)c1ccc(O)c2c1C[C@H]1C[C@H]3[C@H](N(C)C)C(O)=C(C(N)=O)C(=O)[C@@]3(O)C(O)=C1C2=O.Cl` [Compound 16] was tested, and the “CXXC5-DVL inhibitory activity (%)” value (CXXC5-DVL interaction) was 87.9%.
For `O=C1Nc2cc(Br)ccc2/C1=C1/Nc2ccccc2/C1=N\O` [Compound 8, 6-Bromoindirubin-3′-oxime, reference compound], the “level of β-catenin (western blot)” value [1] was “restored”, the “p-GSK3β (S9) (western blot)” value [1] was “increased” and the “activation of Wnt/β-catenin pathway (reporter assay)” value (Wnt/β-catenin pathway) was “showed effectiveness”.
With `O=c1c(O)c(-c2cc(O)c(O)c(O)c2)oc2cc(O)cc(O)c12` [Compound 13] the “CXXC5-DVL inhibitory activity (%)” value (CXXC5-DVL interaction) was 85.22%.
With `N[C@@H](CC(=O)N1CCn2c(nnc2C(F)(F)F)C1)Cc1cc(F)c(F)cc1F` [sitagliptin, reference compound] the “relative expression levels of GLP-1 and other Wnt/β-catenin signaling target genes in epiWAT” value [2] was “did not”.
`CC(N)(Cc1ccc(O)c(O)c1)C(=O)O` (stereo not drawn) [Compound 14] was tested, and the “CXXC5-DVL inhibitory activity (%)” value (CXXC5-DVL interaction) was 85.22%.
